Test results taken from patent US20240101552A1, “CARBONYL HETEROCYCLIC COMPOUND AND APPLICATION THEREOF” (SHANGHAI PHARMACEUTICALS HOLDING CO., LTD., priority 2020, published 2024).

Target: LANCL2 (Homo sapiens (Human), UniProt Q9NS86)
Experiment: SPR (BIACORE S200) kinetic determination of LANCL2-small molecule interactions
Assay type: binding
Settings: for Kd: immobilized LANCL2, 1:1 binding model, pH 6.5, 25° C.; for Rmax (RU): maximum binding force
Protocol: 1.1 Reagent Materials • Ligand: LANCL2 • Running buffer: 20 mM MES, 150 mM NaCl, 0.05% P20, pH 6.5, 1% DMSO
Injection conditions for small molecule compounds: a flow rate of 30 μL/min, a binding time of 60 s, a dissociation time of 300 s.
Running buffer: 20 mM MES, 150 mM NaCl, 0.05% P20, pH 6.5, 1% DMSO.
Sample chamber temperature: 25° C.; analysis temperature: 25° C.
Kinetic determination of LANCL2-small molecule interactions was performed. The kinetic parameters of small molecules BT-11 and L-1 to 60 (analytes) binding to LANCL2 (ligand) were determined using BIACORE S200. Data were generated in triplicate in a dose-dependent manner (5-8 titration points) and analyzed to determine binding models (Langmuir, conformational shifts, etc.), real-time association and dissociation constants, and equilibrium dissociation constants. SPR technology allows the validation of specific LANCL2-phytochemical interactions as well as an increased insight into the gold standard of binding mechanisms and rates. Experiments were performed on carboxymethyl polydextrose (CM5) sensor chips by amine-coupled covalent attachment of LANCL2. Data were analyzed with BIACORE S200T200 evaluation software (version 1), so as to determine affinity binding constants (KD) using a 1:1 binding model.
An optical technique for detecting molecular interactions, SPR, was used to measure the binding affinity between LANCL2 and a ligand thereof (compound to be tested). Purified recombinant LANCL2 protein was immobilized on a BIACORE sensor chip and small molecules were injected onto the protein surface using an equipment of microfluidic system. The change in total mass on the chip surface, corresponding to a small binding to the protein, was measured. […] The equilibrium dissociation constant (Kd) was often used to describe the affinity between a ligand and a protein, such as affinity degree of a ligand binding to a specific protein. Ligand-protein affinity was affected by non-covalent intermolecular interactions between two molecules, such as hydrogen bonding, electrostatic interactions, hydrophobic bonds and van der Waals forces. The steady-state affinity (Kd) for each interaction could be measured by plotting equilibrium binding levels against compound concentrations.

Sequence of LANCL2 (Q9NS86 whole entry, species assumed): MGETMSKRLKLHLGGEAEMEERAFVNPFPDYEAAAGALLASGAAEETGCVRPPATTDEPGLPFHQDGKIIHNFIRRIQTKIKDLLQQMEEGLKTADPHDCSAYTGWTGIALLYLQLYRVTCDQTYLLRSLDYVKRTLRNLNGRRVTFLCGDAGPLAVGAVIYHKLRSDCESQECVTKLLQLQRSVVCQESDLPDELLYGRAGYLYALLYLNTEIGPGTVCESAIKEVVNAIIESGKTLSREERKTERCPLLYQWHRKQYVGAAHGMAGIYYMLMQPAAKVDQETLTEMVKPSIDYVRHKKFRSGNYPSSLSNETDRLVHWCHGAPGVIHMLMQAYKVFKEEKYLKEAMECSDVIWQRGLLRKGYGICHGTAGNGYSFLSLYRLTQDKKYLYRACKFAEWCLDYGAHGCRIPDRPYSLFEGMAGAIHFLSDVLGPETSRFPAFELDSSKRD

Compound | Kd | Rmax (RU) | binding activity compared with positive reference compound BT-11
O=C(NC1CCN(C(=O)c2ccnc(Nc3ccccc3)n2)CC1)c1ccnc(Nc2ccccc2)n1 [Embodiment L-79] | 24.8 µM | 13 RU | –
O=C(c1cccc(-c2cn3ccccc3n2)c1)N1CC2CN(C(=O)c3cccc(-c4cn5ccccc5n4)c3)CC2C1 [Embodiment L-74, (tetrahydropyrrolo[3,4-c]pyrrole-2,5(1H,3H)-diyl)bis((3-(imidazo[1,2-a]pyridin-2-yl)phenyl)methanone)] | 25.8 µM | 0.102 RU | –
O=C(NC1CCN(C(=O)c2cccc(-c3nc4ccccc4[nH]3)n2)CC1)C1CCCC(c2nc3ccccc3[nH]2)C1 [Embodiment L-20] | 43.3 µM | 5.3 RU | –
O=C(NC1CCN(C(=O)c2cccc(-c3nc4ccccc4[nH]3)n2)CC1)c1ccnc(Nc2ccccc2)n1 [Embodiment L-19] | 25.3 µM | 9.7 RU | –
O=C(c1cccc(-c2nc3ccccc3[nH]2)n1)N1CC2CN(C(=O)c3n[nH]c4ccccc34)CC2C1 [Embodiment L-120, (5-(6-(1Hbenzo[d]imidazol-2-yl)picolinoyl)hexahydropyrrolo[3,4-c]pyrrol-2(1H)-yl)(1H-indazol-3-yl)methanone] | 22.1 µM | 8.9 RU | –
O=C(c1cccc(Nc2ccccc2)n1)N1CCC2(CCN(C(=O)c3cccc(-c4nc5ccccc5[nH]4)n3)C2)C1 [Embodiment L-65, (7-(6-(1H-benzo[d]imidazol-2-yl)picolinoyl)-2,7-diazaspiro[4.4]non-2-yl)(6-(phenylamino)pyridin-2-yl)methanone] | 26 µM | 6.5 RU | –
O=C(NC1CCN(C(=O)c2ccnc(Nc3ccccc3)n2)CC1)c1cccc(Nc2ccccc2)n1 [Embodiment L-81, 6-(phenylamino)-N-(1-(2-(phenylamino)pyrimidine-4-carbonyl)piperidin-4-yl)picolinamide] | 23 µM | 10.5 RU | –
O=C(c1cccc(Nc2ccccc2)n1)N1CCC2(CC1)CCN(C(=O)c1ccnc(Nc3ccccc3)n1)CC2 [Embodiment L-80, (9-(6-(phenylamino)picolinoyl)-3,9-diazaspiro[5.5]undecan-3-yl)(2-(phenylamino)pyrimidin-4-yl)methanone] | 28.4 µM | 8.5 RU | –
O=C(c1ccnc(Nc2ccccc2)n1)N1CC2CN(C(=O)c3ccnc(Nc4ccccc4)n3)CC2C1 [Embodiment L-83] | 53.7 µM | 9.6 RU | –
O=C(c1cccc(Nc2ccccc2)n1)N1CC2CN(C(=O)c3cccc(Nc4ccccc4)n3)CC2C1 [Embodiment L-100] | 38.5 µM | 7.8 RU | –
O=C(c1cccc(Nc2ccccc2)n1)N1CC2CN(C(=O)c3cccc(-c4nc5ccccc5[nH]4)n3)CC2C1 [Embodiment L-46, (5-(6-(1H-benzo[d]imidazol-2-yl)picolinoyl)hexahydropyrrolo[3,4-c]pyrrol-2(1H)-yl)(6-(phenylamino)pyridin-2-yl)methanone] | 30.4 µM | 10.6 RU | –
O=C(c1ccnc(Nc2ccccn2)c1)N1CC2CN(C(=O)c3cccc(-c4cn5ccccc5n4)n3)CC2C1 [Embodiment L-54, (5-(6-(imidazo[1,2-a]pyridin-2-yl]picolinoyl)hexahydropyrrolo[3,4-c]pyrrol-2(1H)-yl)(2-(pyridin-2-ylamino)pyridin-4-yl)methanone] | 27.8 µM | 8.4 RU | –
O=C(c1cccc(-c2nc3ccccc3[nH]2)n1)N1CC2CC1CN2C(=O)c1ccnc(N2CCOCC2)n1 [Embodiment L-18, (5-(6-(1H-benzo[d]imidazol-2-yl)picolinoyl)-2,5-diazabicyclo[2.2.1]heptan-2-yl)(2-morpholinopyrimidin-4-yl)methanone] | 127 µM | 5.2 RU | –
Cc1ccc(C(=O)N2CC3C(C2)C3NC(=O)c2cccc(-c3nc4ccccc4[nH]3)n2)cc1NC1=CC(=O)c2ccccc2C1=O [Embodiment L-91] | 1.71 µM | 5.2 RU | –
O=C(c1cccc(-c2nc3ccccc3[nH]2)n1)N1CCN(C(=O)c2n[nH]c3ccccc23)CC1 [Embodiment L-110, (4-(6-(1H-benzo[d]imidazol-2-yl)picolinoyl)piperazin-1-yl)(1H-indazol-3-yl)methanone] | 26.2 µM | 15 RU | –
CN1CCC2(CC1)CCN(c1ccc(NC(=O)C3CCN(C(=O)c4cccc(-c5nc6ccccc6[nH]5)n4)C3)cc1)CC2 [Embodiment L-35, 1-(6-(1H-benzo[d]imidazol-2-yl)picolinoyl)-N-(4-(9-methyl-3,9-diazaspiro[5.5]undecan-3-yl)phenyl)pyrrolidine-3-carboxamide] | 66.1 µM | 14.4 RU | –

Further lines, with some results ahead:

Kd | Rmax (RU) | Compound | binding activity compared with positive reference compound BT-11
1.91 µM | 2.3 RU | NC(=O)c1sccc1NC(=O)c1ccc(C(=O)N2CCC3(CC2)CCN(C(=O)c2cccc(-c4cn5ccccc5n4)c2)CC3)cc1 [Embodiment L-96, 3-(4-(9-(3-(imidazo[1,2-a]pyridin-2-yl)benzoyl)-3,9-diazaspiro[5.5]undecane-3-carbonyl)benzamido)thiophene-2-carboxamide] | better binding activities than the positive reference compound BT-11
21.5 µM | 3.3 RU | O=C(c1cccc(-c2nc3ccccc3[nH]2)n1)N1CCC2(CCCN(C(=O)c3cccc(-c4nc5ccccc5[nH]4)n3)C2)CC1 [Embodiment L-58, (2,9-diazaspiro[5.5]undecane-2,9-diyl)bis(6-(1H-benzo[d]imidazol-2-yl)pyridin-2-yl)methanone] | –
8.73 µM | 4.5 RU | O=C(c1cccc(-c2cn3ccccc3n2)c1)N1CCC2(CC1)CCN(C(=O)c1cccc(-c3cn4ccccc4n3)c1)CC2 [Embodiment L-73, (3,9-diazaspiro[5.5]undecane-3,9-diyl)bis((3-(imidazo[1,2-a]pyridin-2-yl)phenyl)methanone)] | –
3.44 µM | 3.9 RU | O=C(c1cccc(-c2nc3ccccc3[nH]2)n1)N1CCC2(CC1)CCN(C(=O)c1cccc(-c3nc4ccccc4[nH]3)n1)CC2 [Embodiment L-9, (3,9-diazaspiro[5.5]undecane-3,9-diyl)bis((6-(1H-benzo[d]imidazol-2-yl)pyridin-2-yl)methanone)] | better binding activities than the positive reference compound BT-11
13.3 µM | 6.5 RU | O=C(c1cccc(-c2nc3ccccc3[nH]2)n1)N1CCC2(CC1)CCN(C(=O)c1ccnc(Nc3ccccc3)n1)CC2 [Embodiment L-27, (9-(6-(1H-benzo[d]imidazol-2-yl)picolinoyl)-3,9-diazaspiro[5.5]undecan-3-yl)(2-(phenylamino)pyrimidin-4-yl)methanone] | –
14.8 µM | 32.5 RU | Cc1ccc(C(=O)N2CCN(C(=O)c3cccc(-c4nc5ccccc5[nH]4)n3)CC2)cc1NC1=CC(=O)c2ccccc2C1=O [Embodiment L-116, 2-((5-(4-(6-(1H-benzo[d]imidazol-2-yl)picolinoyl)piperazine-1-carbonyl)-2-methylphenyl)amino)naphthalene-1,4-dione] | –
10.3 µM | 7 RU | O=C(c1cnc2ccccc2c1)N1CC2CN(C(=O)c3cccc(-c4nc5ccccc5[nH]4)n3)CC2C1 [Embodiment L-122, (5-(6-(1Hbenzo[d]imidazol-2-yl)picolinoyl)hexahydropyrrolo[3,4-c]pyrrol-2(1H)-yl)(quinolin-3-yl)methanone] | –
2.83 µM | 3.9 RU | O=C(NC1C2CN(C(=O)c3cccc(-c4nc5ccccc5[nH]4)n3)CC21)c1cccc(Nc2ccccn2)n1 [Embodiment L-52, N-(3-(6-(1H-benzo[d]imidazol-2-yl)picolinoyl)-3-azabicyclo[3.1.0]hexan-6-yl)-6-(pyridin-2-ylamino)picolinamide] | better binding activities than the positive reference compound BT-11
9.38 µM | 5.1 RU | O=C(c1ccc(-c2ccccc2)cc1)N1CC2CN(C(=O)c3cccc(-c4nc5ccccc5[nH]4)n3)CC2C1 [Embodiment L-127, (5-(6-(1Hbenzo[d]imidazol-2-yl)picolinoyl)hexahydropyrrolo[3,4-c]pyrrol-2(1H)-yl)([1,1′-biphenyl]-4-yl)methanone] | –
13.2 µM | 12 RU | O=C(NC1CCN(C(=O)c2cccc(-c3cn4ccccc4n3)c2)CC1)c1ccnc(Nc2ccccc2)n1 [Embodiment L-42, N-(1-(3-(imidazo[1,2-a]pyridin-2-yl)benzoyl)piperidin-4-yl)-2-(phenylamino)pyrimidine-4-formamide] | –
